Assay results from PubChem BioAssay AID1963441 (Molecular Pharmacology Branch, DTP, NCI, 2024).

System: NCI-H1876 complex spheroid growth, % test/control
Test: Anticancer human tumor NCI-H1876 cell line growth inhibition [Asc];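 further: compound exposure lasted 7 days starting three days after seeding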;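 on viability, T/C: 100% = DMSO vehicle control wells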
Settings: for IC50: curve of first compound; for viability, T/C: stronger effect = lower value
Summary of the method: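 Complex solid-tumor spheroids incorporating human endothelial and mesenchymal stem cells received single agents or combinations over half-log dilution ranges anchored to clinical Cmax.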

In the case of `C=CC(=O)N1CCN(c2nc(=O)n(-c3c(C)ccnc3C(C)C)c3nc(-c4c(O)cccc4F)c(F)cc23)C(C)C1` (configuration not stated) + CCN1C(C(=O)NC23CCC(C(=O)O)(CC2)CC3)C(c2cccc(Cl)c2F)C2(C(=O)Nc3cc(Cl)ccc32)C12CCCCC2, the IC50 (second compound 0.00949 µM) is reported as > 10 µM, the IC50 (second compound 0.03 µM) is reported as > 10 µM and the IC50 (second compound 0.0949 µM) is reported as > 10 µM. The IC50 (second compound 0.3 µM) was > 10 µM, the IC50 (second compound 0.949 µM) was > 10 µM and the IC50 (second compound 3 µM) was > 10 µM. The viability, T/C (second compound 0.00949 µM, first compound 0.0316 µM) was 93.5%, the viability, T/C (second compound 0.00949 µM, first compound 0.1 µM) was 90.4% and the viability, T/C (second compound 0.00949 µM, first compound 0.316 µM) was 101%. It also gave a viability, T/C (second compound 0.00949 µM, first compound 1 µM) of 108%, a viability, T/C (second compound 0.00949 µM, first compound 3.16 µM) of 118% and a viability, T/C (second compound 0.00949 µM, first compound 10 µM) of 106%. The viability, T/C (second compound 0.03 µM, first compound 0.0316 µM) was 98.2%, the viability, T/C (second compound 0.03 µM, first compound 0.1 µM) was 101% and the viability, T/C (second compound 0.03 µM, first compound 0.316 µM) was 104%. For the same compound, the viability, T/C (second compound 0.03 µM, first compound 1 µM) was 103%, the viability, T/C (second compound 0.03 µM, first compound 3.16 µM) was 110% and the viability, T/C (second compound 0.03 µM, first compound 10 µM) was 107%. The viability, T/C (second compound 0.0949 µM, first compound 0.0316 µM) was 96.8%, the viability, T/C (second compound 0.0949 µM, first compound 0.1 µM) was 93.4% and the viability, T/C (second compound 0.0949 µM, first compound 0.316 µM) was 107%. It also gave a viability, T/C (second compound 0.0949 µM, first compound 1 µM) of 106%, a viability, T/C (second compound 0.0949 µM, first compound 3.16 µM) of 117% and a viability, T/C (second compound 0.0949 µM, first compound 10 µM) of 107%. It also gave a viability, T/C (second compound 0.3 µM, first compound 0.0316 µM) of 103%, a viability, T/C (second compound 0.3 µM, first compound 0.1 µM) of 106% and a viability, T/C (second compound 0.3 µM, first compound 0.316 µM) of 115%. The viability, T/C (second compound 0.3 µM, first compound 1 µM) was 114%, the viability, T/C (second compound 0.3 µM, first compound 3.16 µM) was 114% and the viability, T/C (second compound 0.3 µM, first compound 10 µM) was 109%. For the same compound, the viability, T/C (second compound 0.949 µM, first compound 0.0316 µM) was 118%, the viability, T/C (second compound 0.949 µM, first compound 0.1 µM) was 115% and the viability, T/C (second compound 0.949 µM, first compound 0.316 µM) was 104%. For the same compound, the viability, T/C (second compound 0.949 µM, first compound 1 µM) was 114%, the viability, T/C (second compound 0.949 µM, first compound 3.16 µM) was 118% and the viability, T/C (second compound 0.949 µM, first compound 10 µM) was 112%. The viability, T/C (second compound 3 µM, first compound 0.0316 µM) was 112%, the viability, T/C (second compound 3 µM, first compound 0.1 µM) was 99.6% and the viability, T/C (second compound 3 µM, first compound 0.316 µM) was 96.7%. It also gave a viability, T/C (second compound 3 µM, first compound 1 µM) of 109%, a viability, T/C (second compound 3 µM, first compound 3.16 µM) of 114% and a viability, T/C (second compound 3 µM, first compound 10 µM) of 107%.
